Results on 1 compound are retold here after patent US20100179188A1, “NITROXIDE RADICAL AS TREATMENT FOR NEURODEGENERATION” (Office of Technology Transfer, NIH, priority 2007, published 2010).

Each structure is given as a SMILES string.

In this assay the target is T1, purified holo-IRP1 (Homo sapiens, UniProt P21399).
T1 sequence (P21399 1-889): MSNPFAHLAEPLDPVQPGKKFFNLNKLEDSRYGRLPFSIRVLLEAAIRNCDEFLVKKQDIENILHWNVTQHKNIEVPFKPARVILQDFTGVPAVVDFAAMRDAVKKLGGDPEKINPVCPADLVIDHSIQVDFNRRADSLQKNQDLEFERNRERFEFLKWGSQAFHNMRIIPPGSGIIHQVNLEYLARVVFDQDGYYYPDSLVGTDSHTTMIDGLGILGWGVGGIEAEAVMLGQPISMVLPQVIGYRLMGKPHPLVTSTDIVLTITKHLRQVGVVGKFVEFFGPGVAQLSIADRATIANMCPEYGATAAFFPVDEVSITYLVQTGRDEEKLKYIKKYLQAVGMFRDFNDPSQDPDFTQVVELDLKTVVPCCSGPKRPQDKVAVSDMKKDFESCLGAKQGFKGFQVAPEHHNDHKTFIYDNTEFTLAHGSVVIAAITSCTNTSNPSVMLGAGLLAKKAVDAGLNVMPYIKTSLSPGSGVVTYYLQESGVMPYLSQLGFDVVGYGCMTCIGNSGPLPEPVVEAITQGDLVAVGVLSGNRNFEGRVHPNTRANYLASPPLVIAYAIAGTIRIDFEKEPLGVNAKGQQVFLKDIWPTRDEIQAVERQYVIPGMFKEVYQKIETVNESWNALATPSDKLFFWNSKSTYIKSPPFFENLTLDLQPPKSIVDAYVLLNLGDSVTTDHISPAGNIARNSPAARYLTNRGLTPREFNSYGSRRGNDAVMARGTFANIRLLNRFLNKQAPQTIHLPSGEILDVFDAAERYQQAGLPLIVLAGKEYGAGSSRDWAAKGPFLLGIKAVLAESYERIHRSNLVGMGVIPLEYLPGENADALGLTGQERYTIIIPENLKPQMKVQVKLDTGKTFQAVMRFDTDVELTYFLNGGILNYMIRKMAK
Put plainly: IRE gel shift assay on purified holo-IRP1. The format is biochemical. Here is the method: RNA mobility shift assays: Gel retardation assays were performed as described in Meyron-Holtz et al., EMBO J, 23, 386-395 (2004). Tissue lysates were prepared in an anaerobic chamber as described above in oxygen-depleted lysis buffer containing 10 mM HEPES (pH 7.2), 3 mM MgC12, 40 mM KCl, 5% glycerol, 0.2% Nonidet P-40, 5 mM DTT, 1 mM AEBSF, 10 μg/ml. Leupeptin and complete TM EDTA free protease inhibitor cocktail (Roche Applied Science, Indiana). Lysate (x μl) containing 10 μg of total protein was added to (12.5−x) μl of bandshift buffer containing 25 mM Tris-HCl (pH 7.5) and 40 mM KCl. The samples were incubated for 5 min at room temperature (RT) with 12.5 μl of a reaction cocktail containing 20% glycerol, 0.2 U/μl Super RNAsine (Ambion, Tex.), 0.6 μg/μl yeast t-RNA, 5 mM DTT and 20 nM 32P-labelled IRE from human ferritin H-chain gene in 25 mM Tris-HCl (pH 7.5) and 40 mM KCl. A measure of 20 μl of this reaction mixture was loaded into a 10% acrylamide/TBE gel, which was run at 200 V for 2.15 h, and then the gel was fixed, dried and exposed for autoradiography.
Soum et al., J. Biol Inorg Chem, 8, 226-232 (2003). IRE-binding activity of purified holo-IRP1 (11 ng) was assessed by an IRE gel shift assay. Purified protein (11 ng) was incubated with 0.1% β-mercaptoethanol for 2 h at room temperature without (lane 1) or with (lane 2) 1 mM tempol. Sample in lane 3 was treated with 2% β-mercaptoethanol for 2 min after 2 h incubation without tempol.
A general note: Mobility shift assays separate free from complexed probe on a gel.

Consider `CC1(C)CC(O)CC(C)(C)N1[O]` [Tempo1], for which the “recruitment of IRE-binding activity” value (holo-IRP1, 1.0 mM, 3 h at 37° C., FIG. 6b) is listed as “almost completely recruited”. The “IRE binding activity vs IRP1 exposed to room air alone” value (purified holo-IRP1, 2 h at room temperature and 3 h at 37° C.) was “much higher”. For the same compound, under “purified holo-IRP1 treated with Tempo1”, the “IRE binding activity of IRP1” value was “increased”.
